Assays:
Substance-P receptor = Substance-P receptor (Homo sapiens, UniProt P25103); test: Inhibition of [125I]-substance P binding to human neurokinin-1 (hNK-1) receptor in CHO cells; assay type: cell-based
[1] = Inhibition of [3H]diltiazem binding to L-type calcium channels of rabbit skeletal muscle; assay type: tissue-based, Oryctolagus cuniculus, Muscle tissue

Sequence of Substance-P receptor (P25103 whole entry): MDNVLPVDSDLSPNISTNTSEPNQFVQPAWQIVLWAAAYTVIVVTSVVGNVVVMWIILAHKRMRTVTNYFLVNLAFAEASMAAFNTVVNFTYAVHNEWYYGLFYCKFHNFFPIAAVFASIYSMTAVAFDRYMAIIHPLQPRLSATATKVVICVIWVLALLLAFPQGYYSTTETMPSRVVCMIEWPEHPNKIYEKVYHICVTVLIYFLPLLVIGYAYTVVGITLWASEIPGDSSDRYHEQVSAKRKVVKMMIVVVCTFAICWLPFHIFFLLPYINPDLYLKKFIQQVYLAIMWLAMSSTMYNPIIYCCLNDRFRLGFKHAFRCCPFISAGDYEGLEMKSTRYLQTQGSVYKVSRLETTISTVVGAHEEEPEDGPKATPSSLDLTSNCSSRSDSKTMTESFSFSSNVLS

IC50 (Substance-P receptor) [nM]	IC50 [1] [nM]	SMILES
1.8	5600	CCCCCN(CCCCC)C(=O)[C@H]1CCN(C(=O)N(c2ccccc2)c2ccccc2)[C@H](C(=O)NCCN(CC(N)=O)Cc2ccccc2OC)C1
5.5	820	CCCCCN(CCCCC)C(=O)[C@H]1CCN(C(=O)N(c2ccccc2)c2ccccc2)[C@H](C(=O)NCCCN(CC)CC)C1
20	> 5000	CCCCCN(CCCCC)C(=O)[C@H]1CCN(C(=O)N(c2ccccc2)c2cccc(Cl)c2)[C@H](C(=O)O)C1
33	> 5000	CCCCCN(CCCCC)C(=O)[C@H]1CCN(C(=O)N(c2ccccc2)c2ccccc2)[C@H](C(=O)O)C1
73		CCCCCN(CCCCC)C(=O)[C@@H]1CCN(C(=O)N(c2ccccc2)c2ccccc2)[C@H](C(=O)NCCN(C)Cc2ccccc2OC)C1
0.7	110	COc1ccccc1CN(C)CCNC(=O)[C@@H]1C[C@@H](C(=O)N(Cc2ccccc2)Cc2ccccc2)CCN1C(=O)N(c1ccccc1)c1cccc(Cl)c1
3.5	3700	CCCCCN(CCCCC)C(=O)[C@H]1CCN(C(=O)N(c2ccccc2)c2cccc(Cl)c2)[C@H](C(=O)NCCNCC(N)=O)C1
8		CCCCCN(CCCCC)C(=O)N1CCN(C(=O)N(c2ccccc2)c2cccc(Cl)c2)[C@H](C(=O)NCCCN(CC)CC)C1
1.4	210	CCCCCN(CCCCC)C(=O)[C@H]1CCN(C(=O)N(c2ccccc2)c2cccc(Cl)c2)[C@H](C(=O)NCCN(C)Cc2ccccc2OC)C1
13	2700	CCCCCN(CCCCC)C(=O)[C@H]1CCN(C(=O)N(c2ccccc2)c2ccccc2)[C@H](C(=O)NCCNCC(N)=O)C1
3.8	16200	CCCCCN(CCCCC)C(=O)[C@H]1CCN(C(=O)N(c2ccccc2)c2cccc(Cl)c2)[C@H](C(=O)NCCN(CC(N)=O)Cc2ccccc2OC)C1
1.8	> 5000	CCCCCN(CCCCC)C(=O)[C@H]1CCN(C(=O)N(c2ccccc2)c2cccc(Cl)c2)[C@H](C(=O)NCCN(CC(N)=O)C(=O)OCc2ccccc2)C1
1.8	200	CCCCCN(CCCCC)C(=O)[C@H]1CCN(C(=O)N(c2ccccc2)c2ccccc2)[C@H](C(=O)NCCN(C)Cc2ccccc2OC)C1
250	470	COC(=O)[C@H]1CCN(C(=O)N(c2ccccc2)c2ccccc2)[C@H](C(=O)NCCN(C)Cc2ccccc2OC)C1

SMILES	IC50 (Substance-P receptor) [nM]	IC50 [1] [nM]
COc1ccccc1CN[C@H]1C2CCN(CC2)[C@H]1C(c1ccccc1)c1ccccc1 [CP-96345]		240

Source: ChEMBL document CHEMBL1159130, “1,2,4-Triacylpiperidine substance p antagonists: Separation of affinities for the NK-1 receptor and the L-type calcium channel” (Bioorg Med Chem Lett, 1995)
